Paper PMC5218480 (PLoS ONE, 2017)

System: MV-4-11 cells
Assay: Gene expression microarray analysis (Affymetrix PrimeView) and GSEA
Type: cell-based, human
Parameters: RFU PODN (11730768_x_at) / Fold change /veh PODN (11730768_x_at) / RFU LINC00158 (11744669_a_at) / Fold change /veh LINC00158 (11744669_a_at) / RFU DUSP10 (11751237_a_at) / Fold change /veh DUSP10 (11751237_a_at) / RFU ID3 (11757404_x_at) / Fold change /veh ID3 (11757404_x_at) / RFU PLEKHG5 (11737974_s_at) / Fold change /veh PLEKHG5 (11737974_s_at) / RFU LRRC4B (11730491_at) / Fold change /veh LRRC4B (11730491_at) / RFU GIMAP4 (11747438_a_at) / Fold change /veh GIMAP4 (11747438_a_at) / RFU KRT8 (11758183_x_at) / Fold change /veh KRT8 (11758183_x_at) / RFU CNN1 (11734310_a_at) / Fold change /veh CNN1 (11734310_a_at) / RFU VPS37D (11726825_at) / Fold change /veh VPS37D (11726825_at) / RFU C10orf10 (11716522_x_at) / Fold change /veh C10orf10 (11716522_x_at) / RFU KIR2DL2 /// KIR2DL4 /// KIR2DL5A /// KIR2DL5B /// KIR2DS1 /// KIR2DS2 /// KIR2DS3 /// KIR2DS4 /// KIR3DL3 /// KIR3DL3 /// KIR3DS1 (11738374_at) / Fold change /veh KIR2DL2 /// KIR2DL4 /// KIR2DL5A /// KIR2DL5B /// KIR2DS1 /// KIR2DS2 /// KIR2DS3 /// KIR2DS4 /// KIR3DL3 /// KIR3DL3 /// KIR3DS1 (11738374_at) / RFU C1QL1 (11718748_at) / Fold change /veh C1QL1 (11718748_at) / RFU TMPRSS4 (11747572_a_at) / Fold change /veh TMPRSS4 (11747572_a_at) / RFU HAMP (11756126_x_at) / Fold change /veh HAMP (11756126_x_at) / RFU RNFT2 (11725882_a_at) / Fold change /veh RNFT2 (11725882_a_at) / RFU NR4A2 (11747474_a_at) / Fold change /veh NR4A2 (11747474_a_at) / RFU ABCC12 (11746883_a_at) / Fold change /veh ABCC12 (11746883_a_at) / RFU TMEM136 (11760407_x_at) / Fold change /veh TMEM136 (11760407_x_at) / RFU CLDN22 /// WWC2 (11732394_at) / Fold change /veh CLDN22 /// WWC2 (11732394_at) / RFU HLA-DPB1 (11760878_x_at) / Fold change /veh HLA-DPB1 (11760878_x_at) / RFU SPINT1 (11716480_a_at) / Fold change /veh SPINT1 (11716480_a_at) / RFU GAP43 (11754022_s_at) / Fold change /veh GAP43 (11754022_s_at) / RFU A4GNT (11735810_at) / Fold change /veh A4GNT (11735810_at) / RFU PRB3 (11715151_x_at) / Fold change /veh PRB3 (11715151_x_at) / RFU TUBB4B (11761932_at) / Fold change /veh TUBB4B (11761932_at) / RFU CAPN14 (11732068_a_at) / Fold change /veh CAPN14 (11732068_a_at) / RFU TMCC2 (11721928_a_at) / Fold change /veh TMCC2 (11721928_a_at) / RFU IRGQ (11745062_a_at) / Fold change /veh IRGQ (11745062_a_at) / RFU FAM174B (11720279_a_at) / Fold change /veh FAM174B (11720279_a_at) / RFU TMPRSS4 (11748680_a_at) / Fold change /veh TMPRSS4 (11748680_a_at) / RFU FAM212B (11763350_a_at) / Fold change /veh FAM212B (11763350_a_at) / RFU PLEKHG5 (11743358_a_at) / Fold change /veh PLEKHG5 (11743358_a_at) / RFU ZSCAN30 (11745921_a_at) / Fold change /veh ZSCAN30 (11745921_a_at) / RFU CMKLR1 (11741424_a_at) / Fold change /veh CMKLR1 (11741424_a_at) / RFU LOC101060620 /// MAPK8IP1 (11723275_at) / Fold change /veh LOC101060620 /// MAPK8IP1 (11723275_at) / RFU SPTSSB (11747773_x_at) / Fold change /veh SPTSSB (11747773_x_at) / RFU PRSS12 (11739890_at) / Fold change /veh PRSS12 (11739890_at) / RFU BIN1 (11741810_x_at) / Fold change /veh BIN1 (11741810_x_at) / RFU WNT11 (11732464_a_at) / Fold change /veh WNT11 (11732464_a_at) / RFU C10orf10 (11716521_a_at) / Fold change /veh C10orf10 (11716521_a_at) / RFU C5orf56 (11738089_at) / Fold change /veh C5orf56 (11738089_at) / RFU CYB561 (11721691_x_at) / Fold change /veh CYB561 (11721691_x_at) / RFU ANKRD19P (11752326_a_at) / Fold change /veh ANKRD19P (11752326_a_at) / RFU OR2T12 /// OR2T33 /// OR2T8 (11738714_s_at) / Fold change /veh OR2T12 /// OR2T33 /// OR2T8 (11738714_s_at) / RFU VCAN (11748164_a_at) / Fold change /veh VCAN (11748164_a_at) / RFU JSRP1 (11732532_at) / Fold change /veh JSRP1 (11732532_at) / RFU KRTAP10-11 (11738290_x_at) / Fold change /veh KRTAP10-11 (11738290_x_at) / RFU MYO3A (11730013_a_at) / Fold change /veh MYO3A (11730013_a_at) / RFU EBF3 (11725865_a_at) / Fold change /veh EBF3 (11725865_a_at) / RFU CAMK2N1 (11719241_x_at) / Fold change /veh CAMK2N1 (11719241_x_at) / RFU C5orf56 (11738088_a_at) / Fold change /veh C5orf56 (11738088_a_at) / RFU OLFML3 (11715873_a_at) / Fold change /veh OLFML3 (11715873_a_at) / RFU LOC100653217 /// NTM (11731650_a_at) / Fold change /veh LOC100653217 /// NTM (11731650_a_at) / RFU MAPK11 (11762145_a_at) / Fold change /veh MAPK11 (11762145_a_at) / RFU FIZ1 (11724087_x_at) / Fold change /veh FIZ1 (11724087_x_at) / RFU OASL (11726364_x_at) / Fold change /veh OASL (11726364_x_at) / RFU SOX15 (11748057_x_at) / Fold change /veh SOX15 (11748057_x_at) / RFU CD79A (11719716_a_at) / Fold change /veh CD79A (11719716_a_at) / RFU HIST1H1D (11736915_at) / Fold change /veh HIST1H1D (11736915_at) / RFU CASKIN2 (11723855_a_at) / Fold change /veh CASKIN2 (11723855_a_at) / RFU LOC730098 (11760151_x_at) / Fold change /veh LOC730098 (11760151_x_at) / RFU OR4N2 (11742367_at) / Fold change /veh OR4N2 (11742367_at) / RFU PRRT2 (11749266_a_at) / Fold change /veh PRRT2 (11749266_a_at) / RFU SNX32 (11753110_a_at) / Fold change /veh SNX32 (11753110_a_at) / RFU CDHR5 (11726645_a_at) / Fold change /veh CDHR5 (11726645_a_at) / RFU RCAN1 (11760418_a_at) / Fold change /veh RCAN1 (11760418_a_at) / RFU FAM167A (11723789_a_at) / Fold change /veh FAM167A (11723789_a_at) / RFU FAM26E (11764081_at) / Fold change /veh FAM26E (11764081_at) / RFU ISYNA1 (11749810_s_at) / Fold change /veh ISYNA1 (11749810_s_at) / RFU ACY1 (11761880_at) / Fold change /veh ACY1 (11761880_at) / RFU 11764098_at / Fold change /veh 11764098_at / RFU SAMD14 (11745864_x_at) / Fold change /veh SAMD14 (11745864_x_at) / RFU NPB (11741838_a_at) / Fold change /veh NPB (11741838_a_at) / RFU TMPRSS6 (11731388_a_at) / Fold change /veh TMPRSS6 (11731388_a_at) / RFU KRTAP10-2 (11738614_at) / Fold change /veh KRTAP10-2 (11738614_at) / RFU ARHGAP8 /// PRR5-ARHGAP8 (11727945_x_at) / Fold change /veh ARHGAP8 /// PRR5-ARHGAP8 (11727945_x_at) / RFU KRTAP5-7 /// NADSYN1 (11734609_at) / Fold change /veh KRTAP5-7 /// NADSYN1 (11734609_at) / RFU RASL12 (11751679_a_at) / Fold change /veh RASL12 (11751679_a_at) / RFU CDKN2B (11736163_a_at) / Fold change /veh CDKN2B (11736163_a_at) / RFU PRF1 (11729649_at) / Fold change /veh PRF1 (11729649_at) / RFU, ZNF638 /// ZNF638-IT1 / Fold change vs veh, ZNF638 /// ZNF638-IT1 / RFU, PANK3 / Fold change vs veh, PANK3 / RFU, SH3YL1 / Fold change vs veh, SH3YL1 / RFU, ZEB2 / Fold change vs veh, ZEB2 / RFU, NRIP1 / Fold change vs veh, NRIP1 / RFU, PTTG1IP / Fold change vs veh, PTTG1IP / RFU, CAPN2 / Fold change vs veh, CAPN2 / RFU, MED14 / Fold change vs veh, MED14 / RFU, SNORA58 / Fold change vs veh, SNORA58 / RFU, C1orf63 / Fold change vs veh, C1orf63 / RFU, LRRFIP1 / Fold change vs veh, LRRFIP1 / RFU, NDUFAF7 / Fold change vs veh, NDUFAF7 / RFU, SLC12A2 / Fold change vs veh, SLC12A2 / RFU, IBTK / Fold change vs veh, IBTK / RFU, ESF1 / Fold change vs veh, ESF1 / Fold change vs veh, TMEM50B / RFU, TAOK1 / Fold change vs veh, TAOK1 / RFU, ACBD3 / Fold change vs veh, ACBD3 / RFU, TMA16 / Fold change vs veh, TMA16 / RFU, RWDD3 / Fold change vs veh, RWDD3 / RFU, BCAT1 / Fold change vs veh, BCAT1 / RFU, EDEM3 / Fold change vs veh, EDEM3 / RFU, TMEM33 / Fold change vs veh, TMEM33 / RFU, WDR75 / Fold change vs veh, WDR75 / RFU, AHCTF1 / Fold change vs veh, AHCTF1 / RFU, TFRC / Fold change vs veh, TFRC / RFU, ZDHHC17 / Fold change vs veh, ZDHHC17 / RFU, NOM1 / Fold change vs veh, NOM1 / RFU, ARL8B / Fold change vs veh, ARL8B / RFU, ZBTB11 / Fold change vs veh, ZBTB11 / RFU, TAMM41 / Fold change vs veh, TAMM41 / RFU, KIAA1704 /// LOC100996395 / Fold change vs veh, KIAA1704 /// LOC100996395 / RFU, ING1 / Fold change vs veh, ING1 / RFU, TRMT61B / Fold change vs veh, TRMT61B / RFU, FUBP3 / Fold change vs veh, FUBP3 / RFU, TP53 / Fold change vs veh, TP53 / RFU, TNKS2 / Fold change vs veh, TNKS2 / RFU, ZFP14 / Fold change vs veh, ZFP14 / RFU, ACTR2 / Fold change vs veh, ACTR2 / RFU, PPP3R1 / Fold change vs veh, PPP3R1 / RFU, PIK3R1 / Fold change vs veh, PIK3R1 / RFU, HNRNPA1 / Fold change vs veh, HNRNPA1 / RFU, RNF170 / Fold change vs veh, RNF170 / RFU, ZNF28 / Fold change vs veh, ZNF28 / RFU, RNGTT / Fold change vs veh, RNGTT / RFU, OGT / Fold change vs veh, OGT / RFU, BRD1 / Fold change vs veh, BRD1 / RFU, MARS / Fold change vs veh, MARS / RFU, ZNF655 / Fold change vs veh, ZNF655 / RFU, FAHD1 / Fold change vs veh, FAHD1 / RFU, BDP1 / Fold change vs veh, BDP1 / RFU, LRRCC1 / Fold change vs veh, LRRCC1 / RFU, ARID1A / Fold change vs veh, ARID1A / RFU, ZNF146 / Fold change vs veh, ZNF146 / RFU, ZNF330 / Fold change vs veh, ZNF330 / RFU, GPN3 / Fold change vs veh, GPN3 / RFU, C9orf123 / Fold change vs veh, C9orf123 / RFU, N4BP2L2 / Fold change vs veh, N4BP2L2 / RFU, ARFIP1 / Fold change vs veh, ARFIP1 / RFU, FAM179B / Fold change vs veh, FAM179B / RFU, BCL10 / Fold change vs veh, BCL10 / RFU, UHRF1BP1L / Fold change vs veh, UHRF1BP1L / RFU, BET1 / Fold change vs veh, BET1 / RFU, CNOT2 / Fold change vs veh, CNOT2 / RFU, ZNF268 / Fold change vs veh, ZNF268 / Fold change vs veh, ZNF507 / RFU, DGCR2 / Fold change vs veh, DGCR2 / RFU, WDSUB1 / Fold change vs veh, WDSUB1 / Fold change vs veh, HSP90B1 /// MIR3652 / RFU, ADSS / Fold change vs veh, ADSS / RFU, GK / Fold change vs veh, GK / RFU, ZNF148 / Fold change vs veh, ZNF148 / RFU, TAF9 / Fold change vs veh, TAF9 / RFU, SLC1A5 / Fold change vs veh, SLC1A5 / RFU, SLMO2 / Fold change vs veh, SLMO2 / RFU, ABCC4 / Fold change vs veh, ABCC4 / RFU, LOC101060439 /// RAP1B / Fold change vs veh, LOC101060439 /// RAP1B / RFU, RFX7 / Fold change vs veh, RFX7 / RFU, GTPBP10 / Fold change vs veh, GTPBP10 / RFU, CNEP1R1 / Fold change vs veh, CNEP1R1 / RFU, BIVM-ERCC5 /// ERCC5 / Fold change vs veh, BIVM-ERCC5 /// ERCC5 / RFU, ILF3 / Fold change vs veh, ILF3 / RFU 11762660_at / Fold change /veh 11762660_at / RFU VCAN (11757783_s_at) / Fold change /veh VCAN (11757783_s_at) / RFU DDX43 (11728927_at) / Fold change /veh DDX43 (11728927_at) / RFU KRT8 (11758188_x_at) / Fold change /veh KRT8 (11758188_x_at) / RFU NKD1 (11759106_at) / Fold change /veh NKD1 (11759106_at) / RFU SRD5A1 (11742802_a_at) / Fold change /veh SRD5A1 (11742802_a_at) / RFU TPSAB1 /// TPSB2 (11721975_s_at) / Fold change /veh TPSAB1 /// TPSB2 (11721975_s_at) / RFU GSTM3 (11746129_a_at) / Fold change /veh GSTM3 (11746129_a_at) / RFU IL23R (11737362_x_at) / Fold change /veh IL23R (11737362_x_at) / RFU TMEM51 (11727254_a_at) / Fold change /veh TMEM51 (11727254_a_at) / RFU PIWIL2 (11732686_x_at) / Fold change /veh PIWIL2 (11732686_x_at) / RFU ORM1 (11744905_x_at) / Fold change /veh ORM1 (11744905_x_at) / RFU CCDC152 (11743942_at) / Fold change /veh CCDC152 (11743942_at) / RFU ECM1 (11717891_a_at) / Fold change /veh ECM1 (11717891_a_at) / RFU IL23R (11748794_a_at) / Fold change /veh IL23R (11748794_a_at) / RFU TNFAIP8L3 (11732012_x_at) / Fold change /veh TNFAIP8L3 (11732012_x_at) / RFU MBOAT4 (11741988_at) / Fold change /veh MBOAT4 (11741988_at) / RFU 11764193_at / Fold change /veh 11764193_at / RFU TMEM53 (11763286_at) / Fold change /veh TMEM53 (11763286_at) / RFU MAGEB2 (11727129_at) / Fold change /veh MAGEB2 (11727129_at) / RFU TMEM200A (11744735_a_at) / Fold change /veh TMEM200A (11744735_a_at) / RFU CCDC152 (11751479_a_at) / Fold change /veh CCDC152 (11751479_a_at) / RFU FAM211A (11726209_a_at) / Fold change /veh FAM211A (11726209_a_at) / RFU RGS16 (11746705_a_at) / Fold change /veh RGS16 (11746705_a_at) / RFU VCAN (11755009_s_at) / Fold change /veh VCAN (11755009_s_at) / RFU RHOB (11743442_s_at) / Fold change /veh RHOB (11743442_s_at) / RFU RGS16 (11720943_a_at) / Fold change /veh RGS16 (11720943_a_at) / RFU RGS16 (11720944_at) / Fold change /veh RGS16 (11720944_at) / RFU, VPS4B / Fold change vs veh, VPS4B / RFU, CREB1 / Fold change vs veh, CREB1 / RFU, DNAJC13 / Fold change vs veh, DNAJC13 / RFU, GNAQ / Fold change vs veh, GNAQ / RFU, CDK5R1 / Fold change vs veh, CDK5R1 / RFU, ZRANB3 / Fold change vs veh, ZRANB3 / RFU, CUL4A / Fold change vs veh, CUL4A / RFU, CCNY / Fold change vs veh, CCNY / RFU, UFL1 / Fold change vs veh, UFL1 / RFU, COG3 / Fold change vs veh, COG3 / RFU, DIAPH2 / Fold change vs veh, DIAPH2 / RFU, SKA2 / Fold change vs veh, SKA2 / RFU, AFF3 / Fold change vs veh, AFF3 / RFU, LMF1 / Fold change vs veh, LMF1 / RFU, IPO11 / Fold change vs veh, IPO11 / RFU, DFFB / Fold change vs veh, DFFB / RFU, FOXP1 / Fold change vs veh, FOXP1 / RFU, CARD8 / Fold change vs veh, CARD8 / RFU, STRN3 / Fold change vs veh, STRN3 / RFU, ADK / Fold change vs veh, ADK / RFU, RASSF2 / Fold change vs veh, RASSF2 / RFU, WIPF1 / Fold change vs veh, WIPF1 / RFU, LARP1B / Fold change vs veh, LARP1B / RFU, RASA1 / Fold change vs veh, RASA1 / RFU, RB1 / Fold change vs veh, RB1 / RFU, PPFIA1 / Fold change vs veh, PPFIA1 / RFU, MAT2A / Fold change vs veh, MAT2A / RFU, CCT5 / Fold change vs veh, CCT5 / RFU, WDR92 / Fold change vs veh, WDR92 / RFU, CUX1 / Fold change vs veh, CUX1 / RFU, TTC7A / Fold change vs veh, TTC7A / RFU, TMEM135 / Fold change vs veh, TMEM135 / RFU, DEPTOR / Fold change vs veh, DEPTOR / RFU, CPM / Fold change vs veh, CPM / RFU, DNAJB6 / Fold change vs veh, DNAJB6 / RFU, CACNA2D3 / Fold change vs veh, CACNA2D3 / RFU, DTX4 / Fold change vs veh, DTX4 / RFU, TFCP2 / Fold change vs veh, TFCP2 / RFU, GMCL1 /// GMCL1P1 / Fold change vs veh, GMCL1 /// GMCL1P1 / RFU, AEBP2 / Fold change vs veh, AEBP2 / RFU, SNHG1 /// SNORD22 /// SNORD25 /// SNORD26 /// SNORD27 /// SNORD28 /// SNORD29 /// SNORD31 / Fold change vs veh, SNHG1 /// SNORD22 /// SNORD25 /// SNORD26 /// SNORD27 /// SNORD28 /// SNORD29 /// SNORD31 / Fold change (Aza/veh), C12orf56 (ProbeSet 11735607_a_at) / Fold change (ACY-1035/veh), C12orf56 (ProbeSet 11735607_a_at) / Fold change (Aza/veh), FGFR1OP (ProbeSet 11751329_s_at) / Fold change (ACY-1035/veh), FGFR1OP (ProbeSet 11751329_s_at) / Fold change (Aza/veh), VPS36 (ProbeSet 11739960_a_at) / Fold change (ACY-1035/veh), VPS36 (ProbeSet 11739960_a_at) / RFU SYPL1 (11715823_x_at) / Fold change /veh SYPL1 (11715823_x_at) / RFU IGFBP7 (11715501_s_at) / Fold change /veh IGFBP7 (11715501_s_at) / RFU REEP3 (11722064_at) / Fold change /veh REEP3 (11722064_at) / RFU IGLL1 (11728026_x_at) / Fold change /veh IGLL1 (11728026_x_at): dose or concentration left out as unconfirmed
Conditions: ProbeSet 11731610_x_at; LIST B

## Nc1ccc(-c2cccs2)cc1NC(=O)c1ccc2c(c1)cc(C1CC1)n2CCN1CCOCC1 [ACY-1035]
  RFU, KIAA1704 /// LOC100996395: 79.91 RFU
